Laboratory results reported in PubChem BioAssay (NCI).
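Following 48 hours of exposure in 96-well plates, responses at five concentrations were used to interpolate endpoints linearly. TGI: concentration producing complete growth inhibition.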

Tests used:
Test in all cases: growth of human tumour cells (NCI), 48 h
NCI-H460 lung = test system: NCI-H460 lung
U251 CNS = test system: U251 CNS
SN12C renal = test system: SN12C renal
NCI-H522 lung = test system: NCI-H522 lung
DLD-1 colon = test system: DLD-1 colon
SK-MEL-28 melanoma = test system: SK-MEL-28 melanoma
HOP-92 NSCLC = test system: HOP-92 NSCLC
CCRF-CEM leukemia = test system: CCRF-CEM leukemia
MCF7 breast = test system: MCF7 breast
M14 melanoma = test system: M14 melanoma
786-0 renal = test system: 786-0 renal
SNB-78 CNS = test system: SNB-78 CNS
DU-145 prostate = test system: DU-145 prostate
SF-295 CNS = test system: SF-295 CNS
SK-MEL-2 melanoma = test system: SK-MEL-2 melanoma
SNB-19 CNS = test system: SNB-19 CNS
HT29 colon = test system: HT29 colon
EKVX NSCLC = test system: EKVX NSCLC
XF 498 CNS = test system: XF 498 CNS
DMS 114 small cell lung = test system: DMS 114 small cell lung
A549 NSCLC = test system: A549 NSCLC
NCI-H226 lung = test system: NCI-H226 lung
OVCAR-8 ovarian = test system: OVCAR-8 ovarian
HOP-18 NSCLC = test system: HOP-18 NSCLC
SK-MEL-5 melanoma = test system: SK-MEL-5 melanoma
TK-10 renal = test system: TK-10 renal
UACC-62 melanoma = test system: UACC-62 melanoma
SNB-75 CNS = test system: SNB-75 CNS
A498 renal = test system: A498 renal
BT-549 breast = test system: BT-549 breast
HCT-15 colon = test system: HCT-15 colon
UO-31 renal = test system: UO-31 renal
HL-60(TB) leukemia = test system: HL-60(TB) leukemia
COLO 205 colon = test system: COLO 205 colon
IGROV1 ovarian = test system: IGROV1 ovarian
ACHN renal = test system: ACHN renal
HS 578T breast = test system: HS 578T breast
SF-539 CNS = test system: SF-539 CNS
SF-268 CNS = test system: SF-268 CNS
T-47D breast = test system: T-47D breast
OVCAR-5 ovarian = test system: OVCAR-5 ovarian
CAKI-1 renal = test system: CAKI-1 renal
SR leukemia = test system: SR leukemia
LXFL 529 NSCLC = test system: LXFL 529 NSCLC
MOLT-4 leukemia = test system: MOLT-4 leukemia
MALME-3M melanoma = test system: MALME-3M melanoma
HCT-116 colon = test system: HCT-116 colon
SK-OV-3 ovarian = test system: SK-OV-3 ovarian
MDA-MB-435 = test system: MDA-MB-435
SW-620 colon = test system: SW-620 colon
UACC-257 melanoma = test system: UACC-257 melanoma
RPMI-8226 leukemia = test system: RPMI-8226 leukemia
LOX IMVI melanoma = test system: LOX IMVI melanoma
NCI-H23 lung = test system: NCI-H23 lung
KM12 colon = test system: KM12 colon
KM20L2 colon = test system: KM20L2 colon
OVCAR-3 ovarian = test system: OVCAR-3 ovarian
DMS 273 small cell lung = test system: DMS 273 small cell lung
K-562 leukemia = test system: K-562 leukemia
HOP-62 NSCLC = test system: HOP-62 NSCLC
HCC-2998 colon = test system: HCC-2998 colon
OVCAR-4 ovarian = test system: OVCAR-4 ovarian
M19-MEL melanoma = test system: M19-MEL melanoma
RXF 393 renal = test system: RXF 393 renal
RXF-631 renal = test system: RXF-631 renal

## O=C(O)COc1ccc(C(=O)/C(SS/C(C(=O)c2ccc(OCC(=O)O)c(Cl)c2Cl)=C2\C=C(c3ccc(F)cc3)SS2)=C2/C=C(c3ccc(F)cc3)SS2)c(Cl)c1Cl
NCI-H460 lung
  TGI: 49.1 µM
U251 CNS
  TGI: 24.7 µM
SN12C renal
  TGI: 38.7 µM
NCI-H522 lung
  TGI: 8.44 µM
DLD-1 colon
  TGI: > 53.7 µM
SK-MEL-28 melanoma
  TGI: 38.8 µM
HOP-92 NSCLC
  TGI: 15.4 µM
CCRF-CEM leukemia
  TGI: 18.1 µM
MCF7 breast
  TGI: > 100 µM
M14 melanoma
  TGI: 54.8 µM
786-0 renal
  TGI: > 57 µM
SNB-78 CNS
  TGI: 43.1 µM
DU-145 prostate
  TGI: > 100 µM
SF-295 CNS
  TGI: 69.8 µM
SK-MEL-2 melanoma
  TGI: 34.7 µM
SNB-19 CNS
  TGI: 53.7 µM
HT29 colon
  TGI: 70.6 µM
EKVX NSCLC
  TGI: > 81.4 µM
XF 498 CNS
  TGI: 27 µM
DMS 114 small cell lung
  TGI: 12.7 µM
A549 NSCLC
  TGI: > 93.4 µM
NCI-H226 lung
  TGI: 40.4 µM
OVCAR-8 ovarian
  TGI: 55.8 µM
HOP-18 NSCLC
  TGI: 43.6 µM
SK-MEL-5 melanoma
  TGI: 51.5 µM
TK-10 renal
  TGI: 99.2 µM
UACC-62 melanoma
  TGI: 23.9 µM
SNB-75 CNS
  TGI: 27.4 µM
A498 renal
  TGI: 77.5 µM
BT-549 breast
  TGI: 71.5 µM
HCT-15 colon
  TGI: 28.3 µM
UO-31 renal
  TGI: 36.4 µM
HL-60(TB) leukemia
  TGI: 6.03 µM
COLO 205 colon
  TGI: 25 µM
IGROV1 ovarian
  TGI: 41.7 µM
ACHN renal
  TGI: 56 µM
HS 578T breast
  TGI: 19 µM
SF-539 CNS
  TGI: 26.9 µM
SF-268 CNS
  TGI: 23.1 µM
T-47D breast
  TGI: 31.3 µM
OVCAR-5 ovarian
  TGI: 74.7 µM
CAKI-1 renal
  TGI: > 77.9 µM
SR leukemia
  TGI: 13.4 µM
LXFL 529 NSCLC
  TGI: 13.6 µM
MOLT-4 leukemia
  TGI: 31.2 µM
MALME-3M melanoma
  TGI: 77.3 µM
HCT-116 colon
  TGI: 25.6 µM
SK-OV-3 ovarian
  TGI: > 88.7 µM
MDA-MB-435
  TGI: > 100 µM
SW-620 colon
  TGI: 36.3 µM
UACC-257 melanoma
  TGI: 68.8 µM
RPMI-8226 leukemia
  TGI: 31.5 µM
LOX IMVI melanoma
  TGI: 12.9 µM
NCI-H23 lung
  TGI: 33.7 µM
KM12 colon
  TGI: 32.6 µM
KM20L2 colon
  TGI: > 95.8 µM
OVCAR-3 ovarian
  TGI: 20.7 µM
DMS 273 small cell lung
  TGI: 27.9 µM
K-562 leukemia
  TGI: 32.6 µM
HOP-62 NSCLC
  TGI: > 84.8 µM
HCC-2998 colon
  TGI: > 100 µM
OVCAR-4 ovarian
  TGI: 40.3 µM
M19-MEL melanoma
  TGI: 44.6 µM

## c1ccc(-c2[o+]c(-c3ccccc3)c(-c3ccccc3)c(-c3ccccc3)c2-c2ccccc2)cc1
NCI-H460 lung
  TGI: > 100 µM
U251 CNS
  TGI: > 100 µM
SN12C renal
  TGI: > 100 µM
NCI-H522 lung
  TGI: > 100 µM
DLD-1 colon
  TGI: > 100 µM
SK-MEL-28 melanoma
  TGI: > 100 µM
HOP-92 NSCLC
  TGI: > 100 µM
M14 melanoma
  TGI: > 100 µM
786-0 renal
  TGI: > 100 µM
SNB-78 CNS
  TGI: > 100 µM
RXF 393 renal
  TGI: > 100 µM
SF-295 CNS
  TGI: > 100 µM
SK-MEL-2 melanoma
  TGI: > 100 µM
HT29 colon
  TGI: > 100 µM
EKVX NSCLC
  TGI: > 100 µM
A549 NSCLC
  TGI: > 100 µM
NCI-H226 lung
  TGI: > 100 µM
RXF-631 renal
  TGI: > 100 µM
OVCAR-8 ovarian
  TGI: > 100 µM
HOP-18 NSCLC
  TGI: > 100 µM
SK-MEL-5 melanoma
  TGI: > 100 µM
TK-10 renal
  TGI: > 100 µM
UACC-62 melanoma
  TGI: > 100 µM
SNB-75 CNS
  TGI: > 100 µM
A498 renal
  TGI: > 100 µM
HCT-15 colon
  TGI: > 100 µM
UO-31 renal
  TGI: > 100 µM
HL-60(TB) leukemia
  TGI: > 100 µM
COLO 205 colon
  TGI: > 100 µM
IGROV1 ovarian
  TGI: > 100 µM
ACHN renal
  TGI: > 100 µM
SF-539 CNS
  TGI: > 100 µM
SF-268 CNS
  TGI: > 100 µM
OVCAR-5 ovarian
  TGI: > 100 µM
CAKI-1 renal
  TGI: > 100 µM
LXFL 529 NSCLC
  TGI: > 100 µM
MOLT-4 leukemia
  TGI: > 100 µM
MALME-3M melanoma
  TGI: > 100 µM
HCT-116 colon
  TGI: > 100 µM
SK-OV-3 ovarian
  TGI: > 100 µM
SW-620 colon
  TGI: > 100 µM
UACC-257 melanoma
  TGI: > 100 µM
RPMI-8226 leukemia
  TGI: > 100 µM
LOX IMVI melanoma
  TGI: > 100 µM
NCI-H23 lung
  TGI: > 100 µM
KM20L2 colon
  TGI: > 100 µM
OVCAR-3 ovarian
  TGI: > 100 µM
DMS 273 small cell lung
  TGI: > 100 µM
HOP-62 NSCLC
  TGI: > 100 µM
HCC-2998 colon
  TGI: > 100 µM
OVCAR-4 ovarian
  TGI: > 100 µM
M19-MEL melanoma
  TGI: > 100 µM
